Measured values taken from article PMC12498190, “A Photocaged N‐Phosphonopiperidinone as a Selective Photo‐Cleavable DPP8/9 Inhibitor” (Chembiochem, 2025).
Read-outs that look alike come from different tables or passages of the source.

Biological target: T1, human DPP8 (Homo sapiens, UniProt Q6V1X1)
T1 construct: purchased Proteros Biostructures GmbH, Germany
Assay: DPP8 enzyme inhibition assay, AMC release from GP-AMC
Format: biochemical
Conditions: for IC50: 45 min pre-incubation, read-out: Apparent IC50
Source text: We then continued to investigate the biochemical properties of the photocaged compound 5 versus the photoreleased product resembling inhibitor 1. To this end, we performed biochemical enzyme inhibition assays with DPP8 and DPP9 before and after irradiation of 5. Resulting DPP8/9 inhibition was quantified by following the DPP8‐ or DPP9‐mediated proteolysis of the fluorophore 7‐amino‐4‐methylcoumarin (AMC) from the model substrate Gly‐Pro‐AMC (Figure 1C,D and Table 1 ). To induce photocleavage of 5, reaction mixtures were irradiated for 5 min with the same green LED lamp as before, followed by a pre‐incubation of 45 min with the photoreleased inhibitor prior to substrate addition.
Enzyme activity of human DPP4, DPP8, and DPP9 (Proteros Biostructures GmbH, Germany) was determined by measuring the initial velocity of AMC release from the fluorogenic substrate GP‐AMC (Sigma Aldrich, USA) using a Tecan Spark 10 M multimode microplate reader (Tecan Group Ltd., Switzerland) in activity buffer (20 mM HEPES/KOH pH 7.3, 110 mM potassium acetate, 2 mM magnesium acetate, 0.5 mM EGTA, 0.02% Tween 20, supplemented with 1 mM DTT) and a final volume of 20 μL for maximal 30 min at 30 °C. Prior to the activity measurement, 10 nM of the corresponding enzyme was incubated for 45 min at 30 °C and gentle shaking with the indicated compounds at concentrations ranging from 0 to 100 μM, followed by irradiation with a green LED lamp (λ = 520−530 nm; Eurolite, Germany) for 5 min. The corresponding compounds were dissolved in DMSO and diluted in activity buffer (final DMSO concentration: 1%). To the inhibitor–enzyme mixture, GP‐AMC was then added to a final concentration of 250 μM, and the activity measurement was started. The resulting enzyme activity was calculated from the slope (fluorescence release over time) and plotted against the concentrations of the inhibitor. Apparent IC50 values were calculated using Graph‐Pad Prism v10.4.1 using the equation: [Inhibitor] versus response‐Variable slope (four parameters). All measurements were performed in triplicate, and error bars represent standard errors of the fit.

T1 sequence (Q6V1X1 whole entry): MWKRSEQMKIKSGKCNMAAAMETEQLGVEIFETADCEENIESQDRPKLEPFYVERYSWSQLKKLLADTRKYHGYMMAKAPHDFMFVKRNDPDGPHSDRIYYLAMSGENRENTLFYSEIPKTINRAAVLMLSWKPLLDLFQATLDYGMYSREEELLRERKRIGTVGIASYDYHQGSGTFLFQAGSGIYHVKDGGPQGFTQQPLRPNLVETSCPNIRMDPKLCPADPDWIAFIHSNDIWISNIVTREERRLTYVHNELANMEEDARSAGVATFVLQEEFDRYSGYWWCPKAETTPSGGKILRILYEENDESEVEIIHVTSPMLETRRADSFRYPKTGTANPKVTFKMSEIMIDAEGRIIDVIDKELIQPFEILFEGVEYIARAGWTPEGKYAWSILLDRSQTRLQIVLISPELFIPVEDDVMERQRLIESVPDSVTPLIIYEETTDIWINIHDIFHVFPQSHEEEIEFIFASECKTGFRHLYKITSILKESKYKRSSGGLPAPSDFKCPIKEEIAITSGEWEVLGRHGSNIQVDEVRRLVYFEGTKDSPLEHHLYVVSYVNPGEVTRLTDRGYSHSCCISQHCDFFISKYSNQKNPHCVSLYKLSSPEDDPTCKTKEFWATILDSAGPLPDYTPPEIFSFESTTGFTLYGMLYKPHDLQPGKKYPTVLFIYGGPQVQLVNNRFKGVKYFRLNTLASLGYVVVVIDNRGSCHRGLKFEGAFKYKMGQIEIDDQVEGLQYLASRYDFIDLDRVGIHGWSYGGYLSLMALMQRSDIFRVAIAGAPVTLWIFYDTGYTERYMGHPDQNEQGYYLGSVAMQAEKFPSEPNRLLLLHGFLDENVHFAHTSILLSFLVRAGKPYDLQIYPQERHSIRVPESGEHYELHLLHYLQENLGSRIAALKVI

CCCCCc1ccc(SCCP(=O)(OCC)N2CCC[C@H](NC(=O)OCC3=C4C(C)=CC(C)=[N+]4[B-](C)(C)n4c(C)cc(C)c43)C2=O)cc1 (stereo partly shown) [Compound 5]
Dark/light ratio of apparent IC50: 30 | Increase in potency after green light-mediated photorelease (apparent IC50 dark vs light): about 30 fold | IC50 (dark (without green light irradiation)): 1100 nM | IC50 (light (5 min green LED, 520-530 nm)): 37 ± 3 nM
